Source: patent US20220283165A1, “Methods of Enhancing Immunogenicity of Cancers” (The Board of Trustees of the Leland Stanford Junior …, priority 2019, published 2022)

How the values were obtained:
[1] = test system: hematopoietic cancers and pancreatic ductal adenocarcinoma (PDAC) exhibiting C-MYC overexpression; conditions: in vitro and in vivo; cited from earlier work
Myc-AURKA complex = Myc-AURKA complex (Homo sapiens, UniProt O14965); conditions: MYCN-amplified neuroblastomas; cited from earlier work
Myc-AURKA complex, sequence (O14965 whole entry, one chain of several): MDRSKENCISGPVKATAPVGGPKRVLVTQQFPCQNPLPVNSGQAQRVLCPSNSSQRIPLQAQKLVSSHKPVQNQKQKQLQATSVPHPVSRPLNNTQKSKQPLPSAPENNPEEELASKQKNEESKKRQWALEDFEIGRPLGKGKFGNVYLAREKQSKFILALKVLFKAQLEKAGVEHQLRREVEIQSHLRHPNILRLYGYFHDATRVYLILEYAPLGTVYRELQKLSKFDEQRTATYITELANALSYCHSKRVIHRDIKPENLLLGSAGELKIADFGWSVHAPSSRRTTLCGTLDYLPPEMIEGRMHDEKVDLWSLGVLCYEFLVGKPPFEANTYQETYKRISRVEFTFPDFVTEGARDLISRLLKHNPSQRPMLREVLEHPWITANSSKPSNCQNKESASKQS

[2] = test system: MYCN-amplified neuroblastoma; conditions: xenograft model; cited from earlier work
c-Myc = conditions: P53-mutant human hepatocellular carcinoma cells; cited from earlier work
ST6GALNAC4 = assay: Western blot for ST6GALNAC4 in PEER cells after MYC inhibition; type: cell-based, human; conditions: 100 μM 10058-F4 for 48 hours
Description: (§1) ST6GALNAC4 or pharmacologic MYC inhibition for 48 hours by incubation with 100 μM 10058-F4 (n(control)=8, n(KO)=4, n(inhibitor)=6, two-tailed Mann-Whitney U test). Data presented as mean ±s.d. Panel C: Representative Western blot for ST6GALNAC4 in PEER cells following MYC inhibition with 100 μM 10058-F4 for 48 hours. Data representative of two independent experiments. Panel D: Workflow to collect primary T-ALL from patients, treat with a MYC inhibitor (10058-F4), and quantify Siglec-7 ligands. Panel E: Siglec-7 ligands on patient T-ALL liquid biopsies treated with the indicated concentration of 10058-F4 for 48 hours. Data represent three donors. Panel F: Correlation of ST6GALNAC4 and MYC mRNA (RNA-seq) gene expression across all hematopoietic tumor samples (n=106) in the CCLE with MYC expression>3. Correlation determined by least squares regression. Panel G: Survival Z-score heatmap for each sialyltransferase across each hematopoietic tumor within the PRECOG database. […] Panel H: Siglec-7 ligand display by KARPAS-422 DLBCL cells following treatment with 10058-F4 for 48 hours (n=3 per group, two-tailed Student's t-test). Data presented as mean±s.d. Panel I: Survival stratified by median MYC and ST6GALNAC4 expression in a cohort of DLBCL patients (GSE4475). HR, hazard ratio from Cox Proportional Hazards model. […] Monocyte prevalence was calculated as a fraction of all lymphocytes. […]

[3] = test system: Siglec-7 ligands on PEER cells; assay: Siglec-7 ligand display (Siglec-7-Fc staining, flow cytometry) on PEER cells after MYC or CDK7/9 inhibition; type: cell-based, human; conditions: 48 hours, 10058-F4 at 100 μM
Description: as §1

[4] = test system: MYC-overexpressing T-cell acute lymphoblastic leukemia, mixed-lineage leukemia, neuroblastomas, small cell lung cancers; conditions: cited from earlier work
Myc-Max complex = target: T1, Myc-Max complex (Homo sapiens, UniProt P01106); conditions: HL60 cells; cited from earlier work
T1 construct: host or cells: HL60 cells (for 10058-F4 only)
T1 sequence (P01106 whole entry, one chain of several): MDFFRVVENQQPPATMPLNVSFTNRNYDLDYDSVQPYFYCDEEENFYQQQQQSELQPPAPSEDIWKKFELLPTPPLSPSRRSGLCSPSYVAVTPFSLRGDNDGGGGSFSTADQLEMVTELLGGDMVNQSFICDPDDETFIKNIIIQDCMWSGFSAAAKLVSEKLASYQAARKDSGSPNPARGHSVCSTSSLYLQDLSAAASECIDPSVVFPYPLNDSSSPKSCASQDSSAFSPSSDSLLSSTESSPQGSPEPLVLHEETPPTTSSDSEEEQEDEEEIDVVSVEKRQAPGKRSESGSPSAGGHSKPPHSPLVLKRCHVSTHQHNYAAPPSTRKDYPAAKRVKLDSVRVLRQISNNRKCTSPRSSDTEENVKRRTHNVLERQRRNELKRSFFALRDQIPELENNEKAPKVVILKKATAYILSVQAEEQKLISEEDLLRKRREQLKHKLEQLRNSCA

[5] = test system: Siglec-7 ligands on KARPAS-422 DLBCL cells; assay: Siglec-7 ligand display by KARPAS-422 DLBCL cells after MYC inhibition; type: cell-based, human; conditions: 48 hours
Description: as §1

[6] = test system: Siglec-7 ligands on primary human T-ALL cells; assay: Siglec-7 ligands on patient T-ALL liquid biopsies treated with MYC inhibitor; type: cell-based; conditions: FACS-sorted primary T-ALL cells, 48 hours; two of three patients had Siglec-7-Fc binding
Description: as §1, with “mean±s.d.” for “mean±s.d. Panel I: Survival stratified by median MYC and ST6GALNAC4 expression in a cohort of DLBCL patients (GSE4475). HR, hazard ratio from Cox Proportional Hazards model.”
Assessed next was whether T-ALL liquid biopsies display Siglec-7 ligands susceptible to MYC regulation. […]

For Cc1sc2c(c1C)C(c1ccc(Cl)cc1)=N[C@@H](CC(=O)OC(C)(C)C)c1nnc(C)n1-2 [JQ1], the anti-cancer effects [1] is given as “potent anti-cancer effects both in vitro and in vivo”.
For O=C(O)c1ccc(Nc2ncc3c(n2)-c2ccc(Cl)cc2C(c2c(F)cccc2F)=NC3)cc1 [MLN8054], the “N-Myc degradation and tumor regression” value (Myc-AURKA complex) is given as “N-Myc degradation and tumor regression”.
For CC(=O)c1cc([N+](=O)[O-])c(Sc2ccc(F)cc2F)s1 [P22077], the “growth of MYCN-amplified neuroblastoma” value [2] is given as “markedly suppressed growth”.
In the case of COc1cc(Nc2ncc3c(n2)-c2ccc(Cl)cc2C(c2c(F)cccc2OC)=NC3)ccc1C(=O)O [MLN8237], the c-Myc degradation (c-Myc) is given as “induced c-Myc degradation” and the “N-Myc degradation and tumor regression” value (Myc-AURKA complex) is given as “N-Myc degradation and tumor regression”.
For CN(C)C/C=C/C(=O)Nc1ccc(C(=O)Nc2cccc(Nc3ncc(Cl)c(-c4c[nH]c5ccccc45)n3)c2)cc1 [THZ1], the ST6GALNAC4 protein expression (ST6GALNAC4) is listed as “diminished ST6GALNAC4 protein expression”, the “Siglec-7-Fc binding (Siglec-7 ligands)” value [3] is listed as “reduced Siglec-7-Fc binding” and the anti-tumor effects [4] is listed as “potent anti-tumor effects”.
For CCc1ccc(/C=C2/SC(=S)NC2=O)cc1 [10058-F4], the ST6GALNAC4 protein expression (ST6GALNAC4) is listed as “diminished ST6GALNAC4 protein expression”, the “Siglec-7-Fc binding (Siglec-7 ligands)” value [3] is listed as “reduced Siglec-7-Fc binding” and the “disruption of the Myc-Max complex” value (Myc-Max complex) is listed as “capable of disrupting the Myc-Max complex”. For the same molecule, the “reduction in Siglec-7 ligand abundance” value [5] was 70% and the Siglec-7 ligand display [6] was “reduced Siglec-7 ligand display”.
